# Results: patent US8674109B2, “Pesticidal compositions” (Dow AgroSciences, LLC., priority 2009, dated 2014)
# Columns and labels:
# Format in all cases: in vivo
# [1] = test system: green peach aphid (Myzus persicae); experiment: Insecticidal test for green peach aphid in foliar spray assay on cabbage seedlings
# Procedure, shortened: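 Cabbage seedlings carrying 20-50 aphids (adults and nymphs) were sprayed to runoff with compound at 200 ppm in acetone/methanol diluted in 0.025% Tween 20, with four pots per treatment. After three days at about 25 °C and 40% RH, live aphids were counted. Percent control was Abbott-corrected against solvent-check plants.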
# [2] = test system: beet armyworm (BAW; Spodoptera exigua: Lepidoptera); experiment: Insecticidal test for beet armyworm, 128-well diet tray assay
# Procedure, shortened: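 Three to five second-instar larvae per well fed on artificial diet surface-treated with 50 μg/cm^2 compound (applied in 90:10 acetone-water, dried). Trays were held six days at 25 °C, 14:10 light-dark. Percent mortality was averaged across eight wells.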
# [3] = test system: corn earworm (CEW; Helicoverpa zea: Lepidoptera); experiment: Insecticidal test for corn earworm, 128-well diet tray assay
# Procedure, shortened: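 Second-instar larvae, three to five per well, placed on artificial diet treated with 50 μg/cm^2 compound applied in 90:10 acetone-water and dried. Held six days at 25° C., 14:10 light-dark. Percent mortality scored per well and averaged over eight wells.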
SMILES,% Mortality GPA 200 ppm [1],% Mortality BAW 50 μg/cm^2 [2],% Mortality CEW 50 μg/cm^2 [3]
CC(OC(=O)Nc1ccc(-c2ncn(-c3ccc(OC(F)(F)F)cc3)n2)cc1)c1cnc(Cl)s1 (stereo not drawn) [Compound 54],B (Less than 80),A (50-100),A (50-100)
COc1ccc(C(C)OC(=O)Nc2ccc(-c3ncn(-c4ccc(OC(F)(F)F)cc4)n3)cc2)cn1 (stereo not drawn) [Compound 55],B (Less than 80),A (50-100),A (50-100)
CC(OC(=O)Nc1ccc(-c2ncn(-c3ccc(OC(F)(F)F)cc3)n2)cc1)c1ccc(Cl)nc1 (stereo not drawn) [Compound 56],B (Less than 80),A (50-100),A (50-100)
CC(OC(=O)Nc1ccc(-c2ncn(-c3ccc(OC(F)(F)F)cc3)n2)cc1)c1cnc(C(F)(F)F)nc1 (stereo not drawn) [Compound 57],B (Less than 80),A (50-100),A (50-100)
COCC(OC(=O)Nc1ccc(-c2ncn(-c3ccc(OC(F)(F)F)cc3)n2)cc1)c1ccccc1 (stereo not drawn) [Compound 58],B (Less than 80),A (50-100),A (50-100)
CC(OC(=O)Nc1ccc(-c2ncn(-c3ccc(OC(F)(F)F)cc3)n2)cc1)c1ccccc1 (stereo not drawn) [Compound 59],B (Less than 80),A (50-100),A (50-100)
CCC(OC(=O)Nc1ccc(-c2ncn(-c3ccc(OC(F)(F)F)cc3)n2)cc1)c1cccc(Br)c1 (stereo not drawn) [Compound 63],B (Less than 80),A (50-100),A (50-100)
CC(OC(=O)Nc1ccc(-c2ncn(-c3ccc(OC(F)(F)F)cc3)n2)cc1)c1ccc(OC(F)(F)F)cc1 (stereo not drawn) [Compound 64],B (Less than 80),A (50-100),A (50-100)
CCC(OC(=O)Nc1ccc(-c2ncn(-c3ccc(OC(F)(F)F)cc3)n2)cc1)c1cccc(Cl)c1 (stereo not drawn) [Compound 65],B (Less than 80),A (50-100),A (50-100)
C#CC(OC(=O)Nc1ccc(-c2ncn(-c3ccc(OC(F)(F)F)cc3)n2)cc1)c1ccc(C(F)(F)F)cc1 (stereo not drawn) [Compound 66],B (Less than 80),A (50-100),A (50-100)
CCC(OC(=O)Nc1ccc(-c2ncn(-c3ccc(OC(F)(F)F)cc3)n2)cc1)c1ccc(C(F)(F)F)cc1 (stereo not drawn) [Compound 67],B (Less than 80),A (50-100),A (50-100)
CC(OC(=O)Nc1ccc(-c2ncn(-c3ccc(OC(F)(F)F)cc3)n2)cc1)c1cccc(C(F)(F)F)c1 (stereo not drawn) [Compound 68],B (Less than 80),A (50-100),A (50-100)
CC(OC(=O)Nc1ccc(-c2ncn(-c3ccc(OC(F)(F)F)cc3)n2)cc1)c1ccccc1C(F)(F)F (stereo not drawn) [Compound 69],B (Less than 80),A (50-100),A (50-100)
C=CC(OC(=O)Nc1ccc(-c2ncn(-c3ccc(OC(F)(F)F)cc3)n2)cc1)c1ccccc1 (stereo not drawn) [Compound 70],B (Less than 80),A (50-100),A (50-100)
CCCCC(OC(=O)Nc1ccc(-c2ncn(-c3ccc(OC(F)(F)F)cc3)n2)cc1)c1ccccc1 (stereo not drawn) [Compound 71],B (Less than 80),A (50-100),A (50-100)
CC#CC(OC(=O)Nc1ccc(-c2ncn(-c3ccc(OC(F)(F)F)cc3)n2)cc1)c1ccccc1 (stereo not drawn) [Compound 72],B (Less than 80),A (50-100),A (50-100)
CC(OC(=O)Nc1ccc(-c2ncn(-c3ccc(OC(F)(F)F)cc3)n2)cc1)c1c(Cl)cccc1Cl (stereo not drawn) [Compound 73],B (Less than 80),A (50-100),A (50-100)
CCCC(OC(=O)Nc1ccc(-c2ncn(-c3ccc(OC(F)(F)F)cc3)n2)cc1)c1ccccc1 (stereo not drawn) [Compound 74],B (Less than 80),A (50-100),A (50-100)
CC(OC(=O)Nc1ccc(-c2ncn(-c3ccc(OC(F)(F)F)cc3)n2)cc1)c1ccc(S(C)(=O)=O)cc1 (stereo not drawn) [Compound 75],B (Less than 80),A (50-100),A (50-100)
CC(OC(=O)Nc1ccc(-c2ncn(-c3ccc(OC(F)(F)F)cc3)n2)cc1)c1cccs1 (stereo not drawn) [Compound 76],B (Less than 80),A (50-100),A (50-100)

SMILES,% Mortality GPA 200 ppm [1],% Mortality BAW 50 μg/cm^2 [2],% Mortality CEW 50 μg/cm^2 [3]
CC(OC(=O)Nc1ccc(-c2ncn(-c3ccc(OC(F)(F)F)cc3)n2)cc1)c1ccsc1 (stereo not drawn) [Compound 77],B (Less than 80),A (50-100),A (50-100)
CC(C)CC(OC(=O)Nc1ccc(-c2ncn(-c3ccc(OC(F)(F)F)cc3)n2)cc1)c1ccccc1 (stereo not drawn) [Compound 78],B (Less than 80),A (50-100),A (50-100)
CCC(OC(=O)Nc1ccc(-c2ncn(-c3ccc(OC(F)(F)F)cc3)n2)cc1)c1ccc(F)cc1 (stereo not drawn) [Compound 79],B (Less than 80),A (50-100),A (50-100)
O=C(Nc1ccc(-c2ncn(-c3ccc(OC(F)(F)F)cc3)n2)cc1)OC(c1ccoc1)C(F)(F)F (stereo not drawn) [Compound 80],B (Less than 80),A (50-100),A (50-100)
CC(OC(=O)Nc1ccc(-c2ncn(-c3ccc(OC(F)(F)F)cc3)n2)cc1)c1ccc(Cl)cc1 (stereo not drawn) [Compound 81],B (Less than 80),A (50-100),A (50-100)
C#CC(OC(=O)Nc1ccc(-c2ncn(-c3ccc(OC(F)(F)F)cc3)n2)cc1)c1ccccc1 (stereo not drawn) [Compound 82],B (Less than 80),A (50-100),A (50-100)
O=C(Nc1ccc(-c2ncn(-c3ccc(OC(F)(F)F)cc3)n2)cc1)OC(c1ccccc1)c1ccccc1 [Compound 83],B (Less than 80),A (50-100),A (50-100)
CC(OC(=O)Nc1ccc(-c2ncn(-c3ccc(OC(F)(F)F)cc3)n2)cc1)c1ccc(F)cc1 (stereo not drawn) [Compound 84],B (Less than 80),A (50-100),A (50-100)
CCC(OC(=O)Nc1ccc(-c2ncn(-c3ccc(OC(F)(F)F)cc3)n2)cc1)c1ccccc1 (stereo not drawn) [Compound 85],B (Less than 80),A (50-100),A (50-100)
Cc1noc(C)c1C(C)OC(=O)Nc1ccc(-c2ncn(-c3ccc(OC(F)(F)F)cc3)n2)cc1 (stereo not drawn) [Compound 86],B (Less than 80),A (50-100),A (50-100)
CC(C)OC(=O)Nc1ccc(-c2ncn(-c3ccc(OC(F)(F)F)cc3)n2)cc1 [Compound 87],B (Less than 80),A (50-100),B (Less than 50)
O=C(Nc1ccc(-c2ncn(-c3ccc(OC(F)(F)F)cc3)n2)cc1)OC(c1ccccc1)C1CC1 (stereo not drawn) [Compound 88],B (Less than 80),A (50-100),A (50-100)
Cc1cccc(C)c1C(C)OC(=O)Nc1ccc(-c2ncn(-c3ccc(OC(F)(F)F)cc3)n2)cc1 (stereo not drawn) [Compound 89],B (Less than 80),A (50-100),A (50-100)
O=C(Nc1ccc(-c2ncn(-c3ccc(OC(F)(F)F)cc3)n2)cc1)OC(c1ccccc1)C(F)(F)F (stereo not drawn) [Compound 90],B (Less than 80),A (50-100),A (50-100)
Cc1ccc(C(C)OC(=O)Nc2ccc(-c3ncn(-c4ccc(OC(F)(F)F)cc4)n3)cc2)cc1 (stereo not drawn) [Compound 91],B (Less than 80),A (50-100),A (50-100)
Cc1cccc(C(C)OC(=O)Nc2ccc(-c3ncn(-c4ccc(OC(F)(F)F)cc4)n3)cc2)c1 (stereo not drawn) [Compound 92],B (Less than 80),A (50-100),A (50-100)
Cc1ccccc1C(C)OC(=O)Nc1ccc(-c2ncn(-c3ccc(OC(F)(F)F)cc3)n2)cc1 (stereo not drawn) [Compound 93],B (Less than 80),A (50-100),A (50-100)
Cc1ccc2c(c1)CC(C)C(OC(=O)Nc1ccc(-c3ncn(-c4ccc(OC(F)(F)F)cc4)n3)cc1)O2 (stereo not drawn) [Compound 94],B (Less than 80),A (50-100),A (50-100)
O=C(Nc1ccc(-c2ncn(-c3ccc(OC(F)(F)F)cc3)n2)cc1)OC1CCc2ccccc2O1 (stereo not drawn) [Compound 95],B (Less than 80),A (50-100),A (50-100)
